The values that follow come from patent US12673043B2, “Use of inhibitors of the activator protein 1 (AP-1) for preventing adhesions” (The Board of Trustees of the Leland Stanford Junior …, priority 2020, dated 2026).

In assay [1] the test system is phospho-JUN. Put plainly: In vitro T-5224 treatment of freshly isolated mouse adhesion fibroblasts, phospho-flow cytometry. Conditions: T-5224 10 μM, 24 hours, versus vehicle control (FIG. 22a). The format is cell-based. The text has this:
(§1) Recruitment of Human Specimens. Human abdominal adhesion and control specimens were obtained at the Stanford Hospital under Stanford University's IRB approval. Clinical inclusion criteria were as follows: For adhesion specimens—patients must have had at least one prior abdominal surgery, for control specimens—patients must have had no history of prior abdominal surgery. For all patients, surgery must be elective, and there must be no evidence of active inflammation/infection at time of operation. Written, informed consent was obtained from the patient in the pre-op holding area prior to surgery. Tissue was collected in the operating room, placed directly into sterile saline, and kept on ice for transport. Sample preparation and FACS isolation. Adhesion or control tissue from mouse or human specimens was minced on ice. The tissue was then digested for 60 minutes in a 37° C. water bath agitator in 2 mg/mL collagenase (collagenase type IV, ThermoFisher) digest buffer in Medium 199 (HyClone, GE Healthcare) consisting of 5% fetal bovine serum (Gibco FBS, ThermoFisher), DNase I (Worthington), Poloxamer 188 (Cat. P5556-100ML, Sigma), HEPES, and CaCl2. […] Cells were counted and re-suspended in FACS buffer. […]

The subject of assay [2] is phospho-STAT5. Described as above. It is filed as cell-based. The settings on record: T-5224 10 μM, 24 hours, versus vehicle control (FIG. 22a).
Description: as §1

For assay [3], the system named is phospho-JUN. Put plainly: In vivo JUN suppression in mouse adhesion model, phospho-flow cytometry of adhesion fibroblasts. The settings on record: applied intra-abdominally (10 uM in DMSO, locally at time of adhesion surgery), wild-type and JUN mice, 24 hours, versus vehicle control (FIG. 5d, 22b). As for the experimental part: (§2) Mouse Model for Adhesions. A similar model for abdominal adhesion formation has been described previously by our laboratory. In brief, mice were anesthetized with inhaled isoflurane (Henry Schein Animal Health,) at a concentration of 1-2% in oxygen at 3 L/min. Ophthalmic ointment (Puralube petrolatum, Dechra Veterinary Products) was applied to the cornea to prevent desiccation. Buprenorphine (Buprenex, Reckitt Benckiser Pharmaceuticals Inc.) was administered subcutaneously prior to the surgery at a dose of 0.1 mg/kg. The mice were placed in the supine position on a clean operating surface. A heating pad was used beneath the surgical field to keep the animals warm throughout the procedure. The abdomens were shaved, and the skin of the abdomen was sterilized with three applications of betadine followed by 70% ethanol. During the procedure, the respiratory rate of the animals was monitored, and the isoflurane was titrated accordingly. A vertical midline skin incision was made in the abdomen with sharp scissors. The underlying abdominal wall was then opened vertically. The cecum was located and exteriorized. The cecal wall was abraded gently with 150-grit sandpaper. The parietal peritoneum along the abdominal wall was similarly abraded with sandpaper and three, single, interrupted, 4-0, silk sutures were placed into the right abdominal sidewall, which served as a nidus for adhesion formation. The cecum was then placed anatomically adjacent to the right abdominal wall. The abdomen was briefly irrigated with warmed, sterile, normal saline. The irrigant was removed by blotting with a gauze sponge. The abdominal wall incision was closed with running 6-0 Monocryl suture, and the skin incision was closed with 6-0 nylon, horizontal mattress sutures. The animals were monitored during recovery from anesthesia. Additional buprenorphine was given every 6-12 hours as needed for pain. For sham surgery, animals were treated in an identical manner; however, incisions were closed without manipulation of abdominal organs.
(§3) In Vivo JUN Induction and Suppression. Doxycycline (2 mg/mL) or T-5224 (Cayman Chem, 10 uM) resuspended in DMSO were applied locally to adhesion sites at the time of adhesion surgery for JUN induction (in JUN mice) or suppression (in JUN and WT mice), respectively. Vehicle only was used for control.
(§4) Recruitment of Human Specimens. Human abdominal adhesion and control specimens were obtained at the Stanford Hospital under Stanford University's IRB approval. Clinical inclusion criteria were as follows: For adhesion specimens—patients must have had at least one prior abdominal surgery, for control specimens—patients must have had no history of prior abdominal surgery. […] Cells were counted and re-suspended in FACS buffer. […]

Assay [4] has as its system phospho-STAT5. The assay is described as above. Conditions: applied intra-abdominally (10 uM in DMSO, locally at time of adhesion surgery), wild-type and JUN mice, 24 hours, versus vehicle control (FIG. 5d, 22b). As for the experimental part: as §2, §3, §4
Assay [5] deals with abdominal adhesion formation. As to the kind of experiment: Mouse model for abdominal adhesions, gross and histologic scoring of adhesion tissue. The format is in vivo. Conditions: local application at surgery, JUN and wild-type mice. Here is the method:
(§5) Mouse Model for Adhesions. A similar model for abdominal adhesion formation has been described previously by our laboratory. In brief, mice were anesthetized with inhaled isoflurane (Henry Schein Animal Health,) at a concentration of 1-2% in oxygen at 3 L/min. Ophthalmic ointment (Puralube petrolatum, Dechra Veterinary Products) was applied to the cornea to prevent desiccation. Buprenorphine (Buprenex, Reckitt Benckiser Pharmaceuticals Inc.) was administered subcutaneously prior to the surgery at a dose of 0.1 mg/kg. The mice were placed in the supine position on a clean operating surface. A heating pad was used beneath the surgical field to keep the animals warm throughout the procedure. The abdomens were shaved, and the skin of the abdomen was sterilized with three applications of betadine followed by 70% ethanol. During the procedure, the respiratory rate of the animals was monitored, and the isoflurane was titrated accordingly. A vertical midline skin incision was made in the abdomen with sharp scissors. The underlying abdominal wall was then opened vertically. The cecum was located and exteriorized. The cecal wall was abraded gently with 150-grit sandpaper. […] The animals were monitored during recovery from anesthesia. […]

For another assay, the system named is PDGFRA. Put plainly: Immunofluorescent staining of adhesion tissue after in vivo JUN inhibition. The settings on record: IF staining of adhesion tissue, JUN mice induced with doxycycline (FIG. 6e). Also on record: species or system mouse. As for the experimental part:
as §5

Assay [6] concerns phospho-JUN. The description is as above. The settings on record: IF staining of adhesion tissue, JUN mice induced with doxycycline, versus vehicle control (FIG. 6e-f). Also on record: species or system mouse. Here is the method:
as §5

`O=C(O)CCc1cc(C(=O)c2ccc(OC3CCCC3)cc2O)ccc1OCc1ccc2c(=O)[nH]oc2c1` [T-5224, 3-[5-(4-Cyclopentyloxy-2-hydroxybenzoyl)-2-[(3-oxo-1,2-benzoxazol-6-yl)methoxy]phenyl]propanoic acid]: the phospho-JUN expression entry is “significantly reduced” in the assay with phospho-JUN [1], “significantly decreased” in the assay on phospho-JUN [3] and “significant decrease” in the assay with phospho-JUN [3] (listed as JUN inhibitor). Besides, the results for the phospho-STAT5 expression result in the assay with phospho-STAT5 [2], in the assay with phospho-STAT5 [4] and with phospho-STAT5 [4] (listed as JUN inhibitor) were “significantly reduced”, “significantly decreased” and “significant decrease”, respectively. In addition, in assay [5] (H&E and trichrome, versus vehicle control (FIG. 6a-d)), the “adhesions, histologic assessment” value is “significantly thinner and less fibrotic”. Moreover, the “adhesion formation, gross assessment” value in assay [5] (POD3, versus vehicle control (FIG. 5e-f)) was “dramatic decrease”. Further, the “PDGFRA expression in adhesion tissue” value with PDGFRA is listed as “Co-suppression”. The “JUN expression at the tissue level (p-JUN+ cells)” value with phospho-JUN [6] is on record as “decreased”.
